Here are results for 2 molecules from paper PMC7525662, “Preclinical dosimetry models and the prediction of clinical doses of novel positron emission tomography radiotracers” (Scientific Reports, 2020).

The nature of data set [1]: Residence times normalised to human organ masses, FBP reconstruction. More on the design: species or system Sprague–Dawley rats. The settings on record: rat, in vivo. The procedure: PET studies were reconstructed using filtered-back projection (FBP) and Mediso’s iterative Tera-Tomo 3D reconstruction algorithm with the following settings: 4 iterations, 6 subsets, full detector model, normal regularization, spike filter on, voxel size 0.4 mm and 400‒600 keV energy window. PET data were corrected for randoms, scatter and attenuation. Time-activity curves for each source organ, whole-body and remainder of the body were plotted. […] Residence times (τ) were determined for each radiotracer in source organs, whole-body and remaining (any activity assigned to the whole-body but not assigned to a source organ). Each preclinical source organ’s τ was determined by calculating the area under its respective time-activity curve (activity normalised to the percentage maximum injected dose as a function of time) using the trapezoid method. […] From each individual animal, eight dosimetry models were constructed from all possible combinations of image reconstruction method (FBP or iterative), τ (non-normalised or normalised to human organ masses), and sex of phantom (male or female). Supplementary table 1. Scaling (normalisation) factors applied to residence times of PET radiotracers in male Sprague-Dawley rats to predict human adult residence times. […] Stabin et al. 2006 ^4); WB: Whole Body.

The nature of data set [2]: Whole-body PET biodistribution in rats. The settings on record: PET images, i.v. bolus, 240 min. The format is in vivo, Sprague–Dawley rats. The procedure: On the day of imaging, rats were anaesthetised with 2‒2.5% isoflurane (50/50 oxygen/nitrous oxide, 1 L/min), then transferred to the preclinical PET/CT scanner (nanoPET/CT, Mediso, Hungary) and placed in a supine position. A CT scan (semi-circular full trajectory, maximum field of view, 480 projections, 50 kVp, 300 ms and 1:4 binning) was acquired for attenuation correction.
Immediately after radiotracer administration, a 240 min emission scan using 4 beds (50% overlap) was obtained using 3-dimensional 1:5 mode and re-binned as follows: 7 × 1 min, 2 × 5 min and 4 × 10 min. Throughout the PET/CT scanning session, animal temperature and respiration rate were monitored and controlled.
PET studies were reconstructed using filtered-back projection (FBP) and Mediso’s iterative Tera-Tomo 3D reconstruction algorithm with the following settings: 4 iterations, 6 subsets, full detector model, normal regularization, spike filter on, voxel size 0.4 mm and 400‒600 keV energy window. PET data were corrected for randoms, scatter and attenuation.
Reconstructed whole-body PET/CT images were imported into PMOD 3.8 software (PMOD Technologies, Switzerland) and static regions-of-interest (ROIs) were selected in approximately every third axial slice of source organs in animal subjects, which included the kidneys (left and right), urinary bladder, lungs (right and left), heart, brain, liver and intestine. […]

Consider “NOTA-RGDfK [existing Al^18F-labelled NOTA-RGDfK peptide PET radiotracer; precursor NOTA-RGDfK (1)]”, for which the “Normalised Residence Time (h), Average: Remaining” value in data set [1] was 1.98 h.
For `O=C[C@H]([18F])[C@@H](O)[C@H](O)[C@H](O)CO` [FDG, 2-deoxy-2-[^18F]fluoro-D-glucose], the “Normalised Residence Time (h), Average: Remaining” value in data set [1] is 2.12 h. Moreover, the “organs with highest uptake” value in data set [2] was “brain, heart, kidneys and urinary bladder”.
